{"source": "paper PMC4967059", "about": "“Efficient 9α-hydroxy-4-androstene-3,17-dione production by engineered Bacillus subtilis co-expressing Mycobacterium neoaurum 3-ketosteroid 9α-hydroxylase and B. subtilis glucose 1-dehydrogenase with NADH regeneration” (SpringerPlus, 2016)", "biological_target": "T1, KshB (Mycolicibacterium neoaurum, UniProt D2Y640)", "T1 construct": "gene kstR; pMA5-kshB primer R1 carries no His-tag", "T1 sequence (D2Y640 entry or part of it)": "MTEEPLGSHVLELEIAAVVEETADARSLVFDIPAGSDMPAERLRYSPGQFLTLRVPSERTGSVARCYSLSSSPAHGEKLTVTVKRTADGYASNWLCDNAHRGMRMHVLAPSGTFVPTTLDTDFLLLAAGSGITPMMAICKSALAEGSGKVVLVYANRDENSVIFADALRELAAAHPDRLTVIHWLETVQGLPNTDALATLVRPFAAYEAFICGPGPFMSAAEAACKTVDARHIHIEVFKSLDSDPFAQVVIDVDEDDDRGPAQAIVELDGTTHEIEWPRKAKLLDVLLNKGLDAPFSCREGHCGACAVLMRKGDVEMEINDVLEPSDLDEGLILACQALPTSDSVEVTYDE", "experiment": "dichlorophenolindophenol reduction assay", "type": "biochemical", "conditions": "0.25 mM NADH, 0.1 mM 2,6-dichlorophenolindophenol, 50 mM Tris-HCl pH 7.0, room temperature; electron donor; data not shown"}
{"smiles": "NC(=O)C1=CN([C@@H]2O[C@H](COP(=O)(O)OP(=O)(O)OC[C@H]3O[C@@H](n4cnc5c(N)ncnc54)[C@H](O)[C@@H]3O)[C@@H](O)[C@H]2O)C=CC1", "note": "[NADH]", "values": [{"measurement": "dichlorophenolindophenol reduction assay", "result": "accepts electrons from NAD(P)H and transfers it to oxygenase component KshA"}]}
